One series deals with blood glucose. The series is described as follows: Hypoglycemic effect of insulin-loaded microneedle drug delivery apparatus in minipigs. Type of series: in vivo, experimental minipigs. To be noted: delivered into duodenum by gastroscope, real-time blood glucose over 4 hours. From the text: Considering the similarities between pigs and humans in the structure of the digestive system and physiological functions, experimental minipigs were used as the animal model for functional verification of the apparatus in this example. To prevent the pigs' chewing behavior from damaging the microneedle drug delivery apparatus and to take the individual variations in gastric emptying time into account, in this example, after anesthetizing the pigs, the microneedle drug delivery apparatus prepared in Example 2 was delivered into the pigs' duodenum using a gastroscope, and this moment was defined as time zero, the beginning of monitoring of the drug concentration in serum and the drug delivery effect. Central venous blood samples were collected every 20 minutes for a continuous time period of 4 hours. Real-time blood glucose was measured using a portable blood glucose meter, and the results were illustrated in FIG. 13 and FIG. 14.

Series [1] in a line: Bioavailability of insulin from serum pharmacokinetic curve (human insulin ELISA). The settings on record: minipigs, (AUC/dose) relative to subcutaneous injection group, serum insulin over 4 hours. Type of series: in vivo, experimental minipigs. From the text:
Considering the similarities between pigs and humans in the structure of the digestive system and physiological functions, experimental minipigs were used as the animal model for functional verification of the apparatus in this example. To prevent the pigs' chewing behavior from damaging the microneedle drug delivery apparatus and to take the individual variations in gastric emptying time into account, in this example, after anesthetizing the pigs, the microneedle drug delivery apparatus prepared in Example 2 was delivered into the pigs' duodenum using a gastroscope, and this moment was defined as time zero, the beginning of monitoring of the drug concentration in serum and the drug delivery effect. Central venous blood samples were collected every 20 minutes for a continuous time period of 4 hours. Excess blood was placed in a coagulation tube, left to stand for approximately 40 minutes, and then centrifuged to separate the serum. […] Calculating the area under this curve (AUC) can be used to compare the bioavailability of different drug delivery methods. […] The bioavailability was calculated as the ratio of the area under the pharmacokinetic curve (AUC)/administered dose of the test group to the corresponding value of the subcutaneous injection group, for evaluating the efficiency of a drug delivery method. […]

human recombinant insulin: in the series with blood glucose, the hypoglycemic effect entry is “poor hypoglycemic effect”. For the same substance, in series [1], the bioavailability is 0.6%.

The values above are taken from patent US20260077170A1, “MICRONEEDLE DRUG DELIVERY APPARATUS AND PREPARATION METHOD THEREOF” (TSINGHUA UNIVERSITY, priority 2023, published 2026).
